Results on 1 molecule are retold here after patent publication US5096904A, “Pyridazinones having cardiotonic and beta blocking activities” (Glaxo Inc., priority 1990, dated 1992).

Structures are written as SMILES.

The test system of this assay is dP/dt (contractility) in barbiturate-anesthetized dogs. The assay is described as follows: Anesthetized dog, inotropic effect (baseline left ventricular dP/dt). Format: in vivo, mongrel dogs. Conditions: with atenolol. The method, then:
Inotropic effects were evaluated in barbiturate-anesthetized dogs by differentiating left intraventricular pressure. This procedure was carried out essentially as described by M. K. Grizzel et al in the FASEB Journal, Vol. 3, page 1039, abstract 4728 (1989). […] Cardiac output was determined via thermodilution with a Spectramed computer (Starcom, Oxnard, Calif.) and a 5F Swan Ganz catheter which was inserted into the right jugular vein and positioned in the pulmonary artery. […] A lead II electrocardiogram was measured using subcutaneous electrodes. […] Rectal temperature was monitored and maintained at 37°-38° C. with a heating pad (Baxter Health Care model K20, McGaw Park, Ill.). All variables were recorded using a Gould 3800S physiograph.
Isoproterenol (0.1-0.5 mg/kg) was injected i.v. into the cephalic vein at 10 min intervals except for when the test drug infusion was begun. […] Inhibition of the isoproterenol responses on contractility (dP/dt), heart rate and diastolic blood pressure were determined at each dose of test compound. The inotropic effect of each compound was determined by comparing the level of dP/dt at the end of each 10 min period to that of the level of dP/dt just prior to the infusion of test compound. […]

On to `O=C(COc1ccc(C2=NNC(=O)CC2)cc1Cl)NCCNC[C@H](O)COc1ccccc1` [Example 19, 6-{4-[N-[2-[3-phenoxy-2-hydroxypropylamino]ethyl]carbamoylmethoxy]-3-chlorophenyl}-4,5-dihydro-3(2H)-pyridazinone], for which the “inotropic effects, blockade by atenolol” value was “not blocked by atenolol”.
